Reference: patent US10689383B2, “Optionally fused heterocyclyl-substituted derivatives of pyrimidine useful for the treatment of inflammatory, metabolic, oncologic and autoimmune diseases” (NUEVOLUTION A/S, priority 2014, dated 2020)

Key:
[1] = target: T1, human RORγt (Ligand Binding Domain) (Homo sapiens, UniProt P51449); assay: Fluorescence Polarization (FP) Assay; conditions: Fluorescence Polarization (FP) Assay; values given as upper bounds of activity ranges; read-out: FP activity range
T1 construct: purchased Crelux (Planegg, Germany) batch no PC5032-1
T1 sequence (P51449 269-508 limits assumed): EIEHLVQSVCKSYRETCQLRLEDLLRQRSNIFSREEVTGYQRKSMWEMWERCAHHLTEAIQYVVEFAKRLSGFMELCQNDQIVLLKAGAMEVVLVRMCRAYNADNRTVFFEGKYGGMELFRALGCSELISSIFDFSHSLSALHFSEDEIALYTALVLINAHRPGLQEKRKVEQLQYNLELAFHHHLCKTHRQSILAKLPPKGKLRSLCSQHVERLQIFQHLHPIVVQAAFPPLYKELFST
Protocol: (§1) The activity of the compounds was evaluated using a Fluorescence Polarization (FP) Assay and, in most cases, a Th17 Assay and/or RORγ Reporter assay (also referred to as Gal4 assay). The FP assay is an in vitro assay monitoring binding within the ligand binding pocket. The RORγ and the Th17 assays are both cell-based assays monitoring functional activity of the compound assayed.
The total volume was 25 μl, in a black Perkin Elmer OptiPlate. As negative control, 1 μl DMSO was used. […] The probe is a fluorescently labeled (TAMRA) RORγt ligand identified by Nuevolution with a total molecular weight of 910 g/mole as shown in Graph A in FIG. 1.

[2] = target: T2, yeast Gal4-DNA binding domain fused to the ligand binding domain of human RORγ (Homo sapiens, UniProt P51449); assay: RORγ Reporter Assay (Gal4); assay type: cell-based; conditions: values given as lower bounds of ranges; for Gal4 activity range @ 1 μM (% inhibition): RORγ Reporter Assay (Gal4) at 1 μM; for Gal4 activity range @ 0.1 μM (% inhibition): RORγ Reporter Assay (Gal4) at 0.1 μM
T2 construct: host or cells: HEK293t
T2 sequence (P51449 269-508 limits assumed): T1 sequence (P51449 269-508 limits assumed)
Protocol: as §1
Cell-based RORγ functional assays were performed using a commercially available assay product (INDIGO Biosciences, State College, Pa., USA; product # IB04001). The RORγ reporter cells are HEK293t cells transfected with one vector that provides high level constitutive expression of a hybrid protein comprised of the yeast Gal4-DNA binding domain fused to the ligand binding domain of human RORγ, and a second vector comprising the firefly luciferase cDNA functionally linked to the upstream activation sequence (UAS) of yeast Gal4. A suspension of RORγ Reporter Cells was prepared using the protocol and culture medium provided in the kit product, and 100 μl of the Reporter Cell suspension was then dispensed into wells of a white, collagen-treated, 96-well assay plate. Concentrated stocks of test compounds were prepared in DMSO, then further diluted using media provided in the kit to generate ‘2×-concentration’ treatment media. 100 μl of medium for each respective treatment concentration dispensed into triplicate assay wells, thereby combining with the reporter cells. All media formulations contained 10% charcoal stripped Fetal Bovine Serum, but are otherwise proprietary to INDIGO Biosciences. Final treatment concentrations for each test compound were 1,000 nM and 100 nM, each with 0.1% residual DMSO. Separate control treatments were media supplemented with vehicle only (0.1% DMSO) to determine the constitutive level of RORγ activity in the reporter cells, and the reference inverse-agonist ursolic acid (f.c. 6,000 nM to 8.2 nM in 3-fold decrements) to establish a positive control inverse-agonist dose response. Assay plates were placed in a 37° C., 5% CO2, 85% humidity incubator for 24 hour. Treatment media were then discarded, 100 μl of luciferase detection reagent was added to each well, and relative light units (RLUs) were quantified from each assay well using a plate reading luminometer. Values of average RLU+/−standard deviation were computed for all treatment sets, followed by the calculations of fold-reduction: [Average RLUVehicle/Average RLUTest Cmpd]. Percent-reduction of RORγ activity in response to respective test compound treatments was calculated: [100*(1−[Ave RLUTest Cmpd/Ave RLUVehicle)] where the theoretical minimum reduction (0% reduction) derives from Vehicle treatment only, no treatment compound.

Row | Structure (SMILES) | IC50 [1] [µM] | Gal4 activity range @ 1 μM (% inhibition) [2] [% inhibition] | Gal4 activity range @ 0.1 μM (% inhibition) [2] [% inhibition]
1 | NC(=O)Cc1ccc(CNc2ncnc(N3C[C@H](F)C[C@@H]3c3ccc(C(F)(F)F)cc3)c2F)cc1 (racemic) [Example 241, 2-[4-[[[5-fluoro-6-[(2R,4R)-4-fluoro-2-[4-(trifluoromethyl)phenyl]pyrrolidin-1-yl]pyrimidin-4-yl]amino]methyl]phenyl]acetamide AND 2-[4-[[[5-fluoro-6-[(2S,4S)-4-fluoro-2-[4-(trifluoromethyl)phenyl]pyrrolidin-1-yl]pyrimidin-4-yl]amino]methyl]phenyl]acetamide] | < 1 | – | –
2 | NC(=O)Cc1ccc(CNc2ncnc(N3C[C@H](F)C[C@H]3c3ccc(C(F)(F)F)cc3)c2F)cc1 (racemic) [Example 242, 2-[4-[[[5-fluoro-6-[(2S,4R)-4-fluoro-2-[4-(trifluoromethyl)phenyl]pyrrolidin-1-yl]pyrimidin-4-yl]amino]methyl]phenyl]acetamide AND 2-[4-[[[5-fluoro-6-[(2R,4S)-4-fluoro-2-[4-(trifluoromethyl)phenyl]pyrrolidin-1-yl]pyrimidin-4-yl]amino]methyl]phenyl]acetamide] | < 2 | – | –
3 | CC(C)(C)C[C@@H](Nc1ncnc(N2CCC[C@@H]2c2ccc(C(F)(F)F)cc2)c1F)C(N)=O (single isomer, unassigned) [Example 5, (2R)-2-[[5-fluoro-6-[(2R)-2-[4-(trifluoromethyl)phenyl]pyrrolidin-1-yl]pyrimidin-4-yl]amino]-4,4-dimethyl-pentanamide or (2R)-2-[[5-fluoro-6-[(2S)-2-[4-(trifluoromethyl)phenyl]pyrrolidin-1-yl]pyrimidin-4-yl]amino]-4,4-dimethyl-pentanamide] | < 0.5 | – | –
4 | CC(C)(C)CC(Nc1ncnc(N2CCCC2c2ccc3ncccc3c2)c1F)C(N)=O (stereo in doubt) [Example 23, (2R)-2-[[5-fluoro-6-[2-(6-quinolyl)pyrrolidin-1-yl]pyrimidin-4-yl]amino]-4,4-dimethyl-pentanamide] | < 0.5 | – | –
5 | CC(C)(C)CC(Nc1ncnc(N2CCCC2c2ccc3c(c2)OCCO3)c1F)C(N)=O (stereo in doubt) [Example 24, (2R)-2-[[6-[2-(2,3-dihydro-1,4-benzodioxin-6-yl)pyrrolidin-1-yl]-5-fluoro-pyrimidin-4-yl]amino]-4,4-dimethyl-pentanamide] | < 0.5 | – | –
6 | CCC(C(=O)NCc1ccoc1C(N)=O)n1ccc2c(N3CCCC3c3ccc(-c4ccccc4)cc3)ncnc21 (stereo not drawn) [Example 4, 3-[[2-[4-[2-(4-phenylphenyl)pyrrolidin-1-yl]pyrrolo[2,3-d]pyrimidin-7-yl]butanoylamino]methyl]furan-2-carboxamide] | < 0.5 | – | –
7 | NC(=O)[C@@H](Cc1cc(F)c(F)cc1F)Nc1ncnc(N2CCCC2c2nc3ccccc3s2)c1F (stereo partly drawn) [Example 9, (2R)-2-[[6-[2-(1,3-benzothiazo1-2-yl)pyrrolidin-1-yl]-5-fluoro-pyrimidin-4-yl]amino]-3-(2,4,5-trifluorophenyl)propanamide] | < 0.5 | – | –
8 | CC(C)(C)C[C@@H](Nc1ncnc(N2CCCC2c2ccc(Cl)cc2Cl)c1F)C(N)=O (stereo partly drawn) [Example 11, (2R)-2-[[6-[2-(2,4-dichlorophenyl)pyrrolidin-1-yl]-5-fluoro-pyrimidin-4-yl]amino]-4,4-dimethyl-pentanamide] | < 0.5 | – | –
9 | Cc1nc(N[C@H](CC(C)(C)C)C(N)=O)c(C)c(N2CCCC2c2ccc(C(F)(F)F)cc2)n1 (stereo partly drawn) [Example 15, (2R)-2-[[2,5-dimethyl-6-[2-[4-(trifluoromethyl)phenyl]pyrrolidin-1-yl]pyrimidin-4-yl]amino]-4,4-dimethyl-pentanamide] | < 10 | – | –
10 | CC(C)(C)CCNc1ncnc(N2CCCC2c2ccc(C(F)(F)F)cc2)c1F (stereo not drawn) [Example 21, N-(3,3-dimethylbutyl)-5-fluoro-6-[2-[4-(trifluoromethyl)phenyl]pyrrolidin-1-yl]pyrimidin-4-amine] | < 10 | – | –
11 | NC(=O)Cc1ccc(COc2ncnc(N3CCCC3c3ccc(C(F)(F)F)nc3)c2F)cc1 (stereo not drawn) [Example 84, 2-[4-[[5-fluoro-6-[2-[6-(trifluoromethyl)-3-pyridyl]pyrrolidin-1-yl]pyrimidin-4-yl]oxymethyl]phenyl]acetamide] | – | >20 | –
12 | NC(=O)Cc1ncc(COc2ncnc(N3CCCC3c3ccc(C(F)(F)F)cc3)c2F)cn1 (stereo not drawn) [Example 86, 2-[5-[[5-fluoro-6-[2-[4-(trifluoromethyl)phenyl]pyrrolidin-1-yl]pyrimidin-4-yl]oxymethyl]pyrimidin-2-yl]acetamide] | – | >20 | –
13 | NC(=O)Cc1ncc(CNc2ncnc(N3CCCC3c3ccc(C(F)(F)F)cc3)c2F)cn1 (stereo not drawn) [Example 87, 2-[5-[[[5-fluoro-6-[2-[4-(trifluoromethyl)phenyl]pyrrolidin-1-yl]pyrimidin-4-yl]amino]methyl]pyrimidin-2-yl]acetamide] | – | >20 | –
14 | Cc1ccc(CNc2ncnc(-n3nncc3-c3ccc(C(F)(F)F)cc3)c2F)cn1 [Example 96, 5-fluoro-N-[(6-methyl-3-pyridyl)methyl]-6-[5-[4-(trifluoromethyl)phenyl]triazol-1-yl]pyrimidin-4-amine] | – | >20 | >0
15 | COc1nc(C)ccc1CNc1ncnc(N2CCCC2c2ccc(C(F)(F)F)cc2)c1F (stereo not drawn) [Example 99, 5-fluoro-N-[(2-methoxy-6-methyl-3-pyridyl)methyl]-6-[2-[4-(trifluoromethyl)phenyl]pyrrolidin-1-yl]pyrimidin-4-amine] | – | >50 | >20
16 | Cc1ccc(CNc2ncnc(N3CCCC3c3ccc(C(F)(F)F)cc3O)c2F)cn1 (stereo not drawn) [Example 104, 2-[1-[5-fluoro-6-[(6-methyl-3-pyridyl)methylamino]pyrimidin-4-yl]pyrrolidin-2-yl]-5-(trifluoromethyl)pheno1] | – | >20 | >0
17 | Cc1nc(CNc2ncnc(N3CCCC3c3ccc(C(F)(F)F)cc3)c2F)ccc1C(C)O (stereo not drawn) [Example 112, 1-[6-[[[5-fluoro-6-[2-[4-(trifluoromethyl)phenyl]pyrrolidin-1-yl]pyrimidin-4-yl]amino]methyl]-2-methyl-3-pyridyl]ethanol] | – | >20 | >0
18 | O=C(O)Cc1ccc(CNc2ncnc(N3CCC[C@@H]3c3ccc(C(F)(F)F)cc3)c2F)cc1 [Example 117, 2-[4-[[[5-fluoro-6-[(2R)-2-[4-(trifluoromethyl)phenyl]pyrrolidin-1-yl]pyrimidin-4-yl]amino]methyl]phenyl]acetic acid] | – | – | >50
19 | O=C(c1ccncc1)N1CCC(Nc2ncnc(N3CCCC3c3ccc(C(F)(F)F)cc3)c2F)C1 (stereo not drawn) [Example 121, [3-[[5-fluoro-6-[2-[4-(trifluoromethyl)phenyl]pyrrolidin-1-yl]pyrimidin-4-yl]amino]pyrrolidin-1-yl]-(4-pyridyl)methanone] | – | >50 | >20
20 | O=C1CCCN1Cc1ccc(CNc2ncnc(N3CCCC3c3ccc(C(F)(F)F)cc3)c2F)cc1 (stereo not drawn) [Example 124, 1-[[4-[[[5-fluoro-6-[2-[4-(trifluoromethyl)phenyl]pyrrolidin-1-yl]pyrimidin-4-yl]amino]methyl]phenyl]methyl] pyrrolidin-2-one] | – | >20 | –
21 | NC(=O)Cc1ccc(CNc2ncnc(N3CCCC3c3ccccc3)c2F)cc1 (stereo not drawn) [Example 279, 2-[4-[[[5-fluoro-6-(2-phenylpyrrolidin-1-yl)pyrimidin-4-yl]amino]methyl]phenyl]acetamide] | – | >50 | >20
